The source of these data is patent publication US20200239530A1, “COMPOUNDS AND METHODS OF MODULATING PROTEIN DEGRADATION” (Vividion Therapeutics, Inc., priority 2017, published 2020).

Assay in all cases: Cysteine liganding, probe competition
What all share (format): binding

The target of assay [1] is T1, CDK18 Cyclin-dependent kinase 18 (Homo sapiens, UniProt Q07002).
T1 construct: 200 μL of lysate containing 5 mg/ml proteome was treated with 2 μL of 100× compound stock; endogenous in cells
The conditions noted are these: for Liganded: CDK18 Res# 183, uniprot Q07002. An outline of the steps: (§1)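 Steps: sonicate cells in cold PBS; treat 5 mg/ml lysate with compound (25° C, 1 hr); add desthiobiotin iodoacetamide probe from a 10 mM stock (25° C, 1 hr); precipitate, reduce, alkylate, digest with trypsin; capture labelled peptides on streptavidin for analysis.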

Assay [2] addresses T2, HERC1 Probable E3 ubiquitin-protein ligase HERC1 (Homo sapiens, UniProt Q15751).
T2 construct: Cells were resuspended in cold PBS on ice and sonicated with a probe sonicator to achieve lysis; endogenous in cells
An outline of the steps:
as §1

The target in assay [3] is T3, RRP1B Ribosomal RNA processing protein 1 homolog B (Homo sapiens, UniProt Q14684).
T3 construct: Cells were resuspended in cold PBS on ice and sonicated with a probe sonicator to achieve lysis; endogenous in cells
T3 sequence (Q14684 1-758): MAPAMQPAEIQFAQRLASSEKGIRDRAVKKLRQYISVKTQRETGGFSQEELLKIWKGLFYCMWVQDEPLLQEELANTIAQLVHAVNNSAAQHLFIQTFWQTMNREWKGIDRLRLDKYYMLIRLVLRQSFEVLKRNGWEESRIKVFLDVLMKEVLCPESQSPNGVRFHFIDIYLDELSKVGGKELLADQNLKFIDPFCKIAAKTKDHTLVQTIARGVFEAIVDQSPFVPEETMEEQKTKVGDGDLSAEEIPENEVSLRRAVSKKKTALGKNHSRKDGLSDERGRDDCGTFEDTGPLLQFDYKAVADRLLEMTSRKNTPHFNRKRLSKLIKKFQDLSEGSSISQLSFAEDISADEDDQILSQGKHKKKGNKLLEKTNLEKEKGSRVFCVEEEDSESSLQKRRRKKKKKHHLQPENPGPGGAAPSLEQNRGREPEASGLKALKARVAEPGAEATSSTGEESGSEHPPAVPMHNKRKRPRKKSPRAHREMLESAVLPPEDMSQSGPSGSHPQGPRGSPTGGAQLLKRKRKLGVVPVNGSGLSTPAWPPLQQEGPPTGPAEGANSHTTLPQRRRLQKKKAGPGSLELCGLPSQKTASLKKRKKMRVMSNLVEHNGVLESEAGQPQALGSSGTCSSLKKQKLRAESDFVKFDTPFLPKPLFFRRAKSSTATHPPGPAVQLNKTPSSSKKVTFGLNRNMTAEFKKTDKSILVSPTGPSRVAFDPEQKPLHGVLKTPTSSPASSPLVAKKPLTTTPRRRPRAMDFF
The method, boiled down:
as §1

T1 sequence (Q07002 whole entry): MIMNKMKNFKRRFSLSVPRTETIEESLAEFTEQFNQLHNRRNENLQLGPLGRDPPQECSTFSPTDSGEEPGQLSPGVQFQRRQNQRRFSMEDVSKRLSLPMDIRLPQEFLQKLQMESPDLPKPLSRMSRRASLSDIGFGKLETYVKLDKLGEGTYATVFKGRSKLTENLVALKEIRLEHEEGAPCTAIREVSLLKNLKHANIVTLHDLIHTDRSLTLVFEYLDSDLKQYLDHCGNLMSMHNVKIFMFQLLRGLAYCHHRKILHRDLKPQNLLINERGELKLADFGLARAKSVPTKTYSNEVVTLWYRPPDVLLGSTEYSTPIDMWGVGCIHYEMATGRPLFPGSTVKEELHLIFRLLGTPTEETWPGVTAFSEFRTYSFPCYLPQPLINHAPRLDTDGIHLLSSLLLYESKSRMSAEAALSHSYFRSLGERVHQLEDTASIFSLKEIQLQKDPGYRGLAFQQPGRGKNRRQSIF

Regarding `O=C(CCl)Nc1cc(C(F)(F)F)cc(C(F)(F)F)c1` [KBO3], the Liganded entry in assay [1] was “YES”. For the same compound, in assay [1] (uniprot Q07002), the “100 Max” value was 50.67, the 100 ave was determined as 28.2075, the “500 Max” value stood at 80.44 and the 500 ave is on record as 79.225. Further, in assay [2] (uniprot Q15751), the “500 Max” value worked out at 68.4 and the 500 ave worked out at 58.0. In assay [3] (uniprot Q14684), the “100 Max” value was 27.08, the 100 ave came out at 18.31, the “500 Max” value was determined as 70.79 and the 500 ave is 66.05.
`COc1ccc2c(c1)CCCN2C(=O)CCl` [KB02]: the Liganded entry is reported as “YES” in assay [1]; “YES” in assay [2] (HERC1 Res# 56, uniprot Q15751); “YES” in assay [2] (HERC1 Res# 1941, uniprot Q15751); “YES” in assay [3] (RRP1B Res# 155, uniprot Q14684).
